Reference: ChEMBL document CHEMBL3507680, “University of Dundee, Gates Library screen for HepG2 cell viability”

Assay: Human HepG2 cell viability assay in 384 well format
Assay type: toxicity, cell-based
Parameters: dose 125 nL, time 70.5 hour; concentration not given beside the values
Conditions: HepG2 cells, read-out: Inhibition

Cc1n[nH]c(C)c1Sc1ccccc1NC(=O)N1CCOCC1
cytotoxicity at 70.5 h: -2.37%

CCn1c(N)nc2cc(C(=O)N3CC(c4ccccn4)C3)cnc21
cytotoxicity at 70.5 h: -5.92%

COc1cc(NCc2ccccc2-n2cncn2)nc(N)n1
cytotoxicity at 70.5 h: -6.05%

CN(C)CCCn1ccc(-c2cccc(-c3cncnc3)c2)n1
cytotoxicity at 70.5 h: -9.25%

Cn1cc(Cl)cc1C(=O)N1CCC2(CCCN(CC3CC3)C2=O)C1 (stereo unspecified)
cytotoxicity at 70.5 h: 24.1%

CCc1noc(CN(CC)C(=O)C2CC(=O)N(Cc3ccncc3)C2)n1 (stereo unspecified)
cytotoxicity at 70.5 h: 35.2%

CC(C)c1cc(N2CCC[C@H](N)C2)n2nccc2n1
cytotoxicity at 70.5 h: -4.66%

Cc1ccc(C)c(OCc2cc(C(=O)N(C)Cc3cnn(C)c3)no2)c1
cytotoxicity at 70.5 h: -8.7%

CC(c1ccon1)N(C)C(=O)C1CCN(C(=O)C2CCC2)CC1 (stereo unspecified)
cytotoxicity at 70.5 h: 25.3%

COc1cc(C(=O)N2Cc3cnc(C(C)(C)C)nc3C2)ccn1
cytotoxicity at 70.5 h: -2.74%

Cc1nc(N2CCOc3ccc(CO)cc3C2)c2nc(C)oc2n1
cytotoxicity at 70.5 h: -1.34%

O=C(NCCSc1cnn[nH]1)c1c[nH]nc1C1CCCCC1
cytotoxicity at 70.5 h: 1.5%

COc1cccc(CN2CC3(CCNCC3)CCC2=O)c1OC
cytotoxicity at 70.5 h: 0.619%

O=C(c1cncc(NCC2COc3ccccc3C2)n1)N1CCCC1 (stereo unspecified)
cytotoxicity at 70.5 h: 14.9%

CCn1ncnc1C1CC(=O)NCc2nc(N3CCCC3)sc21 (stereo unspecified)
cytotoxicity at 70.5 h: -21.6%

Cc1ccc(OC2(C(=O)O)CCN(C(=O)c3cc(C)oc3C)CC2)cn1
cytotoxicity at 70.5 h: 4.69%

CC(c1ccc(F)cc1)n1ccnc1-c1cc2n(n1)CCCNC2 (stereo unspecified)
cytotoxicity at 70.5 h: -6.66%

CSCCC1c2nc[nH]c2CCN1Cc1[nH]c2ccc(F)cc2c1C (stereo unspecified)
cytotoxicity at 70.5 h: 10.9%

CN(Cc1csc(-c2cccs2)n1)CC(O)CO (stereo unspecified)
cytotoxicity at 70.5 h: 18.7%

COCCCN1CCC(c2nc3c([nH]2)CC(C)(C)CNC3=O)C1 (stereo unspecified)
cytotoxicity at 70.5 h: -5.24%

Cc1c(C(=O)NCC2CCN(Cc3ccco3)C2)[nH]c2ccccc12 (stereo unspecified)
cytotoxicity at 70.5 h: -5.18%

CSc1ccccc1C(=O)N1C[C@H]2CC[C@@H]1CN(C(=O)C1CCC1)C2
cytotoxicity at 70.5 h: -4.19%

COc1ccc(OCc2nc(C(=O)N3CCC(NC(C)=O)C3)co2)cc1 (stereo unspecified)
cytotoxicity at 70.5 h: -1.19%

Cc1nccn1-c1ccc(NC(=O)C2CCCN2Cc2c[nH]cn2)cc1 (stereo unspecified)
cytotoxicity at 70.5 h: 14.9%

O=C(NCCc1[nH]nc2c1CCCC2)C1CCCN(Cc2ccco2)C1 (stereo unspecified)
cytotoxicity at 70.5 h: -2.55%

CN(C)C[C@@H]1CN(C(=O)CCC2CCCC2)C[C@@H]1CO
cytotoxicity at 70.5 h: 20.2%

CC(C)CN1CCc2[nH]cnc2C12CCN(C(=O)c1cc[nH]n1)CC2
cytotoxicity at 70.5 h: -5.86%

Cc1ncsc1C(=O)N1CCCC(CO)(CC2CC2)C1 (stereo unspecified)
cytotoxicity at 70.5 h: -7.6%

Cc1ccnc(C(Nc2nccc(-c3ccc(C)nc3C)n2)C2CC2)c1 (stereo unspecified)
cytotoxicity at 70.5 h: -6.77%

COc1cccc(OC2CN(C(=O)c3ccnc(OC)c3)C2)c1
cytotoxicity at 70.5 h: -21%

CC(NCc1cc(O)c2cccc(F)c2n1)c1ccccc1O (stereo unspecified)
cytotoxicity at 70.5 h: -10.4%

O=C1CCC2(CCN(Cc3ccc(F)cc3Cl)CC2)CN1CCO
cytotoxicity at 70.5 h: 12.9%

C[C@@H]1CN(c2cc(N3CCC(O)CC3)ncn2)C[C@@]1(O)C1CCC1
cytotoxicity at 70.5 h: 35.1%

Cc1cccnc1N1CCN(Cc2cc(O)c3cccc(F)c3n2)CC1
cytotoxicity at 70.5 h: -0.745%

CCN1CCC(CNc2nccc(C)n2)(N(C)C)CC1
cytotoxicity at 70.5 h: -3.2%

CSCCC1c2nc[nH]c2CCN1Cc1cncn1C (stereo unspecified)
cytotoxicity at 70.5 h: 33.9%

CN(Cc1csc(-c2cccs2)n1)Cc1ncccc1C(=O)O
cytotoxicity at 70.5 h: -12.2%

CN(CCCc1nccn1C)C(=O)C1COc2ccccc2C1 (stereo unspecified)
cytotoxicity at 70.5 h: -2.53%

CN(CCN1CCCCCC1)Cc1cnc(N)nc1
cytotoxicity at 70.5 h: -6%

COc1ccc(Cc2ncc3c(n2)CN(C(=O)C(C)(C)OC)C3)cc1
cytotoxicity at 70.5 h: -6.62%

COC1CCN(c2cc(C(C)C)nc3ccnn23)C1 (stereo unspecified)
cytotoxicity at 70.5 h: 5.73%

Cc1cc(CNC(=O)c2cn(CCC3CCCCN3)nn2)on1 (stereo unspecified)
cytotoxicity at 70.5 h: -5.72%

COCc1ccc(C(=O)N2CCC(Oc3ccccc3)(C(=O)O)CC2)o1
cytotoxicity at 70.5 h: 17.3%

OCCNc1cc(N2CCC(n3cc(C4CCCC4)nn3)CC2)ncn1
cytotoxicity at 70.5 h: -10.7%

Cc1c(C(=O)NCCC2CN(C)CCO2)n(C)c2c(C)cccc12 (stereo unspecified)
cytotoxicity at 70.5 h: -27%

NC(=O)CCN1CCc2onc(-c3ccccc3F)c2C1
cytotoxicity at 70.5 h: -11.6%

CCN(Cc1noc(C)n1)C(=O)C(c1ccc(C)cc1)N(C)C (stereo unspecified)
cytotoxicity at 70.5 h: -0.785%

CCSCCNC(=O)c1ccc(S(=O)(=O)N2C[C@@H]3C[C@H]2CN3)cc1
cytotoxicity at 70.5 h: -4.95%

Cc1nc(N2CCOc3ccc(CO)cc3C2)c2c(C)noc2n1
cytotoxicity at 70.5 h: -2.39%

CCCN1CC2(CCN(C)CC2)CC1C(=O)NCCn1cc(C)cn1 (stereo unspecified)
cytotoxicity at 70.5 h: -4.52%

CCN(C)c1ccc(C(=O)NCCCc2ccccn2)cn1
cytotoxicity at 70.5 h: -4.13%

Cc1oc(-c2cccc(F)c2F)nc1CN(CCO)C(C)C
cytotoxicity at 70.5 h: -8.53%

c1ccc2c(c1)CCN(c1nc(-c3ccncc3)nc3c1CCNC3)C2
cytotoxicity at 70.5 h: 23.9%

Cc1nc2cc(C(=O)N3C[C@@H](C(=O)O)[C@H](c4ccncc4)C3)ccc2[nH]1
cytotoxicity at 70.5 h: -3.63%

Cc1nc[nH]c1-c1nccn1CCCN(C)C
cytotoxicity at 70.5 h: 6.24%

CS(=O)(=O)CC(=O)N(CCN1CCOCC1)Cc1ccco1
cytotoxicity at 70.5 h: 22.7%

COc1cccc(C2CCN2C(=O)c2cnccn2)c1 (stereo unspecified)
cytotoxicity at 70.5 h: -2.61%

CCCN1C[C@H]2CC[C@@H]1CN(Cc1ccc(-n3cccn3)cc1)C2
cytotoxicity at 70.5 h: 23.7%

O=C(C1CNCCN1C(=O)CCc1cccnc1)N1CCOCC1 (stereo unspecified)
cytotoxicity at 70.5 h: 3.27%

CCCNc1ncc(CN2CCC3(CC2)CNC(=O)C3)cn1
cytotoxicity at 70.5 h: 12.6%

Cc1nc(NCc2scnc2-c2ccccc2)cc(C2CCNCC2)n1
cytotoxicity at 70.5 h: -6.26%

O=C1NCC2(CCCN(C(=O)c3ccc4c(c3)CCCO4)CC2)O1 (stereo unspecified)
cytotoxicity at 70.5 h: 4.55%

CC(C)C(NC(N)=O)C(=O)N1CCN(c2ccccc2Cl)C(=O)C1 (stereo unspecified)
cytotoxicity at 70.5 h: -9.59%

Cc1cccc(C(C(=O)N(C)Cc2ccon2)N(C)C)c1 (stereo unspecified)
cytotoxicity at 70.5 h: -0.0384%

CCc1cc(CN(C)C(=O)c2cnon2)on1
cytotoxicity at 70.5 h: -2.96%

CC(=O)c1ccn(CC(=O)Nc2nn(CC3CC3)c3ccccc23)n1
cytotoxicity at 70.5 h: -10.7%

COCCCNCc1cc(O)c2cc(C)cc(C)c2n1
cytotoxicity at 70.5 h: -5.24%

COc1cccc(CN2CCN(CC(C)C)C(=O)C2C)c1O (stereo unspecified)
cytotoxicity at 70.5 h: 0.611%

Cc1nc(N(C)C2CCCCC2)ncc1C(C)NC(=O)c1cscn1 (stereo unspecified)
cytotoxicity at 70.5 h: 1.66%

Cc1ccnc(NCCSc2nccn2C)n1
cytotoxicity at 70.5 h: -5.33%

CC(Cn1cncn1)NC1CCN(Cc2cccc(O)c2)CC1 (stereo unspecified)
cytotoxicity at 70.5 h: -2.81%

COCCN(C)C[C@@H]1CN(Cc2ccnc3ccccc23)C[C@@H]1CO
cytotoxicity at 70.5 h: -16.1%

COc1ccc(C(=O)C2CCCN(c3cc(C#N)ccn3)C2)cc1OC (stereo unspecified)
cytotoxicity at 70.5 h: -5.09%

CN(C)CCN1CC(C(=O)N(C)Cc2cc3cc(F)ccc3[nH]2)CC1=O (stereo unspecified)
cytotoxicity at 70.5 h: -7.58%

O=C1N(C2CCCCC2)CCCC12CCN(S(=O)(=O)c1cccnc1)C2 (stereo unspecified)
cytotoxicity at 70.5 h: -5.02%

O=C(C1CC(=O)N(C2CC2)C1)N1CCN(CCn2cccc2)CC1 (stereo unspecified)
cytotoxicity at 70.5 h: -1.53%

COCC(=O)NCc1cccnc1-n1cnc2ccccc21
cytotoxicity at 70.5 h: -0.396%

Cc1nc[nH]c1CN1CCCn2nc(CN3CCC(F)(F)CC3)cc2C1
cytotoxicity at 70.5 h: -9.44%

COC(=O)C(C)NCc1ccc2[nH]c(C)c(C)c2c1 (stereo unspecified)
cytotoxicity at 70.5 h: -0.287%

CCC(NC1CSCCSC1)c1ccc(S(C)(=O)=O)cc1 (stereo unspecified)
cytotoxicity at 70.5 h: -14.2%

Cc1ccc(CN2CCN(Cc3ccc(N(C)C)nc3)CC2=O)cc1C
cytotoxicity at 70.5 h: -1.36%
